Each structure is given as a SMILES string.

This test has as its target T1, TRPC4 (Homo sapiens, UniProt Q9UBN4).
T1 construct: expressed in transfected cells
T1 sequence (Q9UBN4 1-982 isoform Q9UBN4-5): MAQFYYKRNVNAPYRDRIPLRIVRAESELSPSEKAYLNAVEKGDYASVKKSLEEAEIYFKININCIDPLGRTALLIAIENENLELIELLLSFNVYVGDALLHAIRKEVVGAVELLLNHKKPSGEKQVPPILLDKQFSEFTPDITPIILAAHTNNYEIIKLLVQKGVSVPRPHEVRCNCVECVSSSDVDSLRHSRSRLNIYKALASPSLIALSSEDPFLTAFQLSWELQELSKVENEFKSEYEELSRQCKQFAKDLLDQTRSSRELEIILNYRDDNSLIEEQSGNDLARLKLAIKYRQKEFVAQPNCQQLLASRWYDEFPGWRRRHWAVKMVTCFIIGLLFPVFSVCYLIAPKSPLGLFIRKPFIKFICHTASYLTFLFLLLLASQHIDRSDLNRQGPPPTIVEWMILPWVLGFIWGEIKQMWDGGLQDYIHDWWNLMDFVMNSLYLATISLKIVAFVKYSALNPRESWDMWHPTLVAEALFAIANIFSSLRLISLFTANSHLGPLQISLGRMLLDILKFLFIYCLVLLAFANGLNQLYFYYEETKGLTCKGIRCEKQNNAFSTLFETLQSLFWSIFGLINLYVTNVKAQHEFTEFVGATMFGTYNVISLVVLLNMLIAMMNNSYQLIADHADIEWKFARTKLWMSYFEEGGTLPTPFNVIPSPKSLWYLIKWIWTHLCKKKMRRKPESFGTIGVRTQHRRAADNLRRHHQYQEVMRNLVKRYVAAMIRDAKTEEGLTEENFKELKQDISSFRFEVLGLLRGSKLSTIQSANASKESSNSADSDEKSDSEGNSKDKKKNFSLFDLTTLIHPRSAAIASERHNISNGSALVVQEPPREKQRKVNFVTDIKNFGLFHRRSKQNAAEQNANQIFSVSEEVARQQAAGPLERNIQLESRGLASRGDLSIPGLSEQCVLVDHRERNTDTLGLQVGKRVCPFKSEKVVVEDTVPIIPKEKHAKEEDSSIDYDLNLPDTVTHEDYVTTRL
The experiment in a line: TRPC4 activity assay (FLIPR calcium fluorescence, Englerin A stimulation). It is filed as cell-based. The settings on record: HEK-TREx hTRPC4 cells, 100 nM Englerin A stimulation; read-out: TRPC4 (IC50 class). The procedure: ICLN-1694 cells (HEK-TREx hTRPC4) expressing TRPC4 were generated as follows. Commercially available HekTrex-293 cells were seeded at 0.7×10^6 cells/well in a 1×6-well plate 24 hrs prior to transfection using 2 mL cell growth media containing no antibiotics (1× DMEM/high glucose (Hyclone #SH30022.02); 10%0/fetal bovine serum (Sigma) 2 mM sodium pyruvate, 10 mM HEPES). […] On day 2, 2 μg of plasmid DNA plus 6 μl of Xtreme-GENE HP reagent in Optimem (200 μl total volume) was prepared and incubated for 15 min at room temperature. This plasmid solution was then gently overlayed dropwise onto each well and the plate was gently swirled to mix complex with the media for approximately 30 seconds. Transfected cells were incubated at 37° C. in a 10% C02 incubator for 24 hrs. The transfected cells were harvested and transferred into 2×150 mm dishes containing cell growth media with no antibiotics at 37° C.
The next day selection was initiated to generate a stable pool by adding cell growth media containing 150 μg/mL Hygromycin and 5 μg/mL Blasticidin and cells were allowed to grow. Media with the selection agent was changed every 1-2 days as needed to remove dead cells. After 7 days, the hygromycin concentration was reduced to 75 μg/mL and cells growth was allowed to continue.
Single clones were selected as follows. The stable pool was diluted to 10 cells/mL and seeded (100 μl/well) into 24×96 well plates (˜1 cell/well) and allowed to grow for 7 days in cell growth media. Fresh media (100 μl) was added and the cells allowed to grow for another 1-2 weeks and then stored frozen or used immediately.
10-point dose response curves were generated using the Echo-550 acoustic dispenser. Compound source plates were made by serially diluting compound stocks to create 10 mM, 1 mM, and 0.1 mM solutions in DMSO into Echo-certified LDV plates. The Echo then serially spotted 100% DMSO stock solutions into source dose response plates to generate a 4-fold dilution scheme. 100% DMSO was added to the spotted dose response plates to bring the final volume to 5 μl. […] of the dose response stock plate was then spotted into pre-incubation and stimulation assay plates. 50 μl of pre-incubation buffer and 100 μl of stimulation buffer was then added to the plates resulting in a final assay test concentration range of 30 μM to 0.0001 μM with a final DMSO concentration of 0.3%.
ICLN-1694 cells (HEK-TREx hTRPC4) were plated onto 384 well, black pdl-coated microplates and maintained in cell growth media supplemented with 1 μg/mL tetracycline the day prior to use for experiments. TRPC4 expression was induced by the application of 1 μg/mL tetracycline at the time of plating. […] Cells were incubated at room temperature, protected from light, for 60-90 minutes. After the incubation period, the dye was removed and replaced with 10 μl of EBSS. Cell, pre-incubation and stimulation plates were loaded onto the FLIPR-II and the assay was initiated. The FLIPR measured a 10 second baseline and then added 10 μl of 2X compounds (or controls). Changes in fluorescence were monitored for an additional 5 minutes. After a 5 minute pre-incubation, 20 μl of 2X Englerin A (with 1X compound or controls) was added to the cell plate. The final Englerin A stimulation concentration in the assay was 100 nM. After the Englerin A addition, changes in fluorescence were monitored for an additional 5 minutes.
Compound modulation of TRPC4 calcium response was determined as follows. After the Englerin A, fluorescence was monitored for a 5-minute period. The maximum relative fluorescence response (minus the control response of 1 μM of an internal control compound known to maximally block TRPC4 calcium response, the “REF INHIB” in the formula below) was captured and exported from the FLIPR.
Compound effect is calculated as % inhibition using the following formula:
[formula] wherein “RFU” is the relative fluorescent units.

On to `O=c1[nH]ncc(N2CCc3c(ncnc3Oc3ccc(F)cc3Cl)C2)c1Cl` [Compound 104], for which the IC50 was less than 50 nM. Take `CC1Cc2c(ncnc2Oc2ccc(F)cc2Cl)CN1c1cn[nH]c(=O)c1Cl` (single isomer, unassigned) [Compound 117]: the IC50 lay in the range of 50 to 500 nM.

The values are drawn from patent publication US11046690B2, “Pyridazinones and methods of use thereof” (Goldfinch Bio, Inc., priority 2018, dated 2021).
